≈ marks a conversion by molar mass, not a printed value. Calls of active or inactive are those of the source. The rule behind the calls is not given here.
What was measured:
Staphylococcus aureus [1] = assay: Antibacterial activity against Staphylococcus aureus ATCC 29213 assessed as inhibition of bacterial growth incubated for 24 hrs by broth dilution method; assay type: functional
Acinetobacter baumannii = assay: Antibacterial activity against Acinetobacter baumannii ATCC 17978 assessed as inhibition of bacterial growth incubated for 24 hrs by broth dilution method; assay type: functional
Pseudomonas aeruginosa = assay: Antibacterial activity against Pseudomonas aeruginosa ATCC 9027 assessed as inhibition of bacterial growth incubated for 24 hrs by broth dilution method; assay type: functional
[2] = Hemolytic activity against rabbit blood cells incubated for 1 hr relative to control; assay type: toxicity, cell-based, Oryctolagus cuniculus, Erythrocyte; details: rabbit blood cells (erythrocytes)
Staphylococcus aureus [3] = assay: Antibacterial activity against methicillin-resistant Staphylococcus aureus NCTC 10442 assessed as inhibition of bacterial growth incubated for 24 hrs in presence of 140 mM Na+ by broth dilution method; assay type: functional
Escherichia coli [4] = assay: Antibacterial activity against Escherichia coli ATCC 25922 assessed as inhibition of bacterial growth incubated for 24 hrs in presence of 2.5 mM Ca2+ by broth dilution method; assay type: functional
Klebsiella pneumoniae [5] = assay: Antibacterial activity against Klebsiella pneumoniae ATCC 10031 assessed as inhibition of bacterial growth incubated for 24 hrs in presence of 2.5 mM Ca2+ by broth dilution method; assay type: functional
Staphylococcus aureus [6] = assay: Antibacterial activity against methicillin-resistant Staphylococcus aureus NCTC 10442 assessed as inhibition of bacterial growth incubated for 24 hrs in presence of 4.5 mM K+ by broth dilution method; assay type: functional
Staphylococcus aureus [7] = assay: Antibacterial activity against Staphylococcus aureus ATCC 29213 assessed as inhibition of bacterial growth incubated for 24 hrs in presence of 19 uM Zn2+ by broth dilution method; assay type: functional
Staphylococcus aureus [8] = assay: Antibacterial activity against methicillin-resistant Staphylococcus aureus NCTC 10442 assessed as inhibition of bacterial growth incubated for 24 hrs in presence of 19 uM Zn2+ by broth dilution method; assay type: functional
Staphylococcus aureus [9] = assay: Antibacterial activity against Staphylococcus aureus ATCC 29213 assessed as inhibition of bacterial growth incubated for 24 hrs in presence of 20 uM Fe2+ by broth dilution method; assay type: functional
Staphylococcus aureus [10] = assay: Antibacterial activity against methicillin-resistant Staphylococcus aureus NCTC 10442 assessed as inhibition of bacterial growth incubated for 24 hrs in presence of 20 uM Fe2+ by broth dilution method; assay type: functional
Klebsiella pneumoniae [11] = assay: Antibacterial activity against Klebsiella pneumoniae ATCC 10031 assessed as inhibition of bacterial growth incubated for 24 hrs in presence of 20 uM Fe2+ by broth dilution method; assay type: functional
Staphylococcus aureus [12] = assay: Antibacterial activity against methicillin-resistant Staphylococcus aureus NCTC 10442 assessed as inhibition of bacterial growth incubated for 24 hrs in presence of 20 uM Fe3+ by broth dilution method; assay type: functional
[13] = Cytotoxicity against mouse fibroblast NCTC clone 929 cells assessed as viable cells at […] microg/ml incubated for 24 hrs by CCK-8 assay; assay type: toxicity, cell-based; details: NCTC clone 929 (L929) fibroblast cells, dose 1.56 µg/ml, read-out: Activity
[14] = Cytotoxicity against human HepG2 cells assessed as viable cells at 3.125 microg/ml incubated for 24 hrs by CCK-8 assay; assay type: toxicity, cell-based; details: at 3.125 µg/mL, read-out: Activity
[15] = Cytotoxicity against human HepG2 cells assessed as viable cells at 25 microg/ml incubated for 24 hrs by CCK-8 assay; assay type: toxicity, cell-based; details: at 25 µg/mL, read-out: Activity
Staphylococcus aureus [16] = assay: Bactericidal activity against methicillin-resistant Staphylococcus aureus NCTC 10442 assessed as bacterial reduction at 4 time of MIC concentration incubated for 2 hrs by time-kill assay; assay type: functional
Cell membrane [17] = assay: Induction of cytoplasmic membrane permeabilization in methicilin-resistant Staphylococcus aureus […] assessed as disruption of cell membrane integrity by measuring increase in fluorescence intensity at 1 to 8 times of MIC concentration measured upto 60 mins by SYTOX green dye based fluorescence analysis; assay type: cell membranes; details: NCTC 10442
Cell membrane [18] = assay: Induction of cytoplasmic membrane permeabilization in Escherichia coli ATCC 25922 assessed as disruption of cell membrane integrity measured upto 60 mins by measuring increase in fluorescence intensity at 1 to 8 times of MIC concentration by SYTOX green dye based fluorescence analysis; assay type: cell membranes
Cell membrane [19] = assay: Induction of outer membrane permeabilization in Escherichia coli ATCC 25922 assessed as increase in fluorescence intensity at 1 to 8 times MIC concentration by NPN-dye based fluorescence analysis; assay type: cell membranes
Lipoteichoic acid = assay: Displacement of BODIPY-TR-cadaverine from Bacillus subtilis lipoteichoic acid (LTA) assessed as increase in fluorescence intensity at 2 times MIC measured after 30 mins by fluorescence spectrophotometric analysis
Staphylococcus aureus [20] = assay: (§1) Bactericidal activity against methicillin-resistant Staphylococcus aureus NCTC 10442 assessed as up-regulation of molecular functions related gene expression by measuring aminoacyl-tRNA hydrolase activity (GO:0004045) at 4 times of MIC concentration measured after 90 mins incubation by RNA sequencing (RNA-seq) study; assay type: functional, organism-based
Staphylococcus aureus [21] = assay: as §1, with “uracil DNA N-glycosylase” for “aminoacyl-tRNA hydrolase”, “(GO:0004844)” for “(GO:0004045)”; assay type: functional, organism-based
Escherichia coli [22] = assay: Bactericidal activity against Escherichia coli ATCC 25922 assessed as down-regulation down of ferroxidase activity (GO:0004322) at 4 times of MIC concentration measured after 90 mins incubation by RNA sequencing (RNA-seq) study; assay type: functional, organism-based
Escherichia coli [23] = assay: Bactericidal activity against Escherichia coli ATCC 25922 assessed as change in xenobiotics biodegradation and metabolism gene expression at 4 times of MIC concentration measured after 90 mins incubation by RNA sequencing (RNA-seq) study; assay type: functional, organism-based
Escherichia coli [24] = assay: Bactericidal activity against Escherichia coli ATCC 25922 assessed as down regulation of phenylalanine metabolism gene expression at 4 times of MIC concentration measured after 90 mins incubation by RNA sequencing (RNA-seq) study; assay type: functional, organism-based
Staphylococcus aureus [25] = assay: Bactericidal activity against methicillin-resistant Staphylococcus aureus NCTC 10442 assessed as change in cell death associated gene expression by measuring up-regulation of clfB, DX983_RS14825) and DX983_RS14235 gene expression at 4 times of MIC concentration measured after 90 mins incubation by RNA sequencing (RNA-seq) study; assay type: functional, organism-based
Escherichia coli [26] = assay: (§2) Bactericidal activity against Escherichia coli ATCC 25922 assessed as change in cell death associated gene expression by measuring down-regulation of LPS export ABC transporter periplasmic-encoding gene (lptC, D1792_RS12575) gene expression at 4 times of MIC concentration measured after 90 mins incubation by RNA sequencing (RNA-seq) study; assay type: functional, organism-based
Escherichia coli [27] = assay: as §2, with “the inner membrane protein-coding” for “LPS export ABC transporter periplasmic-encoding”, “(yqiJ, D1792_RS11855)” for “(lptC, D1792_RS12575)”; assay type: functional, organism-based
Escherichia coli [28] = assay: as §2, with “glycosyltransferase family 2 (D1792_RS06385)” for “LPS export ABC transporter periplasmic-encoding gene (lptC, D1792_RS12575)”; assay type: functional, organism-based
Escherichia coli [29] = assay: as §2, with “(D1792_RS11370)” for “(lptC, D1792_RS12575)”; assay type: functional, organism-based
Staphylococcus aureus [30] = assay: In vivo antibacterial activity against Staphylococcus aureus ATCC 29213 infected C57BL6 mouse corneal infection model assessed as reduction in bacterial burden at 3 mg/ml, TOP 4 times in a day for 3 consecutive days; assay type: functional; details: time 3 day
[31] = Toxicity in C57BL6 mouse assessed as signs of toxicity treated in eyeballs 4 times in a day for 3 consecutive days; details: in vivo, topical_or_ocular
[32] = Toxicity in C57BL6 mouse assessed as corneal damage treated in eyeballs 4 times in a day for 3 consecutive days; details: in vivo, topical_or_ocular

Compound: C=C(C)[C@@H]1CCC(C)=C[C@H]1c1c(OCCCNC(=N)N)cc(CCCCC)cc1OCCCNC(=N)N
- MIC (Staphylococcus aureus [1]): 0.78 µg/mL (≈ 1.52 µM)
- MIC (Acinetobacter baumannii): 3.12 µg/mL (≈ 6.09 µM)
- MIC (Pseudomonas aeruginosa): 6.25 µg/mL (≈ 12.2 µM)
- HC50 at 1 h [2]: > 200 µg/mL
- MIC (Staphylococcus aureus [3]): 0.39 µg/mL
- MIC (Escherichia coli [4]): 3.12 µg/mL
- MIC (Klebsiella pneumoniae [5]): 6.25 µg/mL
- MIC (Staphylococcus aureus [6]): 0.39 µg/mL
- MIC (Staphylococcus aureus [7]): 0.78 µg/mL
- MIC (Staphylococcus aureus [8]): 0.39 µg/mL
- MIC (Staphylococcus aureus [9]): 0.39 µg/mL
- MIC (Staphylococcus aureus [10]): 0.39 µg/mL
- MIC (Klebsiella pneumoniae [11]): 3.12 µg/mL
- MIC (Staphylococcus aureus [12]): 0.39 µg/mL
- viability at 24 h, 1.56 microg/ml [13]: 94%
- viability at 24 h, 3.125 microg/ml [14]: 111%
- viability at 24 h, 25 microg/ml [15]: 92.9%
- Activity (Staphylococcus aureus [16]): 3 log10FFU/ml
- Activity (Cell membrane [17]): Active
- Activity (Cell membrane [18]): Active
- Activity (Cell membrane [19]): Dose-Dependent Effect
- Activity (Lipoteichoic acid): 19.8%
- Activity (Staphylococcus aureus [20]): Active
- Activity (Staphylococcus aureus [21]): Active
- Activity (Escherichia coli [22]): Active
- Activity (Escherichia coli [23]): Active
- Activity (Escherichia coli [24]): Active
- Activity (Staphylococcus aureus [25]): Active
- Activity (Escherichia coli [26]): Active
- Activity (Escherichia coli [27]): Active
- Activity (Escherichia coli [28]): Active
- Activity (Escherichia coli [29]): Active
- Activity (Staphylococcus aureus [30]): 6.99 log10FFU/ml
- Activity [31]: Non-Toxic
- Activity [32]: Non-Toxic

From ChEMBL document CHEMBL5543084, “Development of cannabidiol derivatives as potent broad-spectrum antibacterial agents with membrane-disruptive mechanism” (Eur J Med Chem, 2024)
